Laboratory results reported in patent publication US11477981B2, “Ice nucleation formulations for cryopreservation and stabilization of biologics” (The General Hospital Corporation, priority 2016, dated 2022).

B1: ice nucleation active (INA) protein: ice nucleation active protein InaZ of Pseudomonas syringae (UniProt P06620-1; SEQ ID NO: 1) (protein, listed as Pseudomonas syringae)
chain: MNLDKALVLRTCANNMADHCGLIWPASGTVESRYWQSTRRHENGLVGLLWGAGTSAFLSVHADARWIVCEVAVADIISLEEPGMVKFPRAEVVHVGDRISASHFISARQADPASTSTSTLTPMPTAIPTPMPAVASVTLPVAEQARHEVFDVASVSAAAAPVNTLPVTTPQNVQTATYGSTLSGDNHSRLIAGYGSNETAGNHSDLIAGYGSTGTAGSDSWLVAGYGSTQTAGGDSALTAGYGSTQTAREGSNLTAGYGSTGTAGSDSSLIAGYGSTQTSGGDSSLTAGYGSTQTAQEGSNLTAGYGSTGTAGSDSSLIAGYGSTQTSGGDSSLTAGYGSTQTAQEGSNLTAGYGSTGTAGVDSSLIAGYGSTQTSGSDSALTAGYGSTQTAQEGSNLTAGYGSTGTAGSDSSLIAGYGSTQTSGSDSSLTAGYGSTQTAQEGSILTAGYGSTGTAGVDSSLIAGYGSTQTSGSDSALTAGYGSTQTAQEGSNLTAGYGSTGTAGADSSLIAGYGSTQTSGSESSLTAGYGSTQTAREGSTLTAGYGSTGTAGADSSLIAGYGSTQTSGSESSLTAGYGSTQTAQQGSVLTSGYGSTQTAGAASNLTTGYGSTGTAGHESFIIAGYGSTQTAGHKSILTAGYGSTQTARDGSDLIAGYGSTGTAGSGSSLIAGYGSTQTASYRSMLTAGYGSTQTAREHSDLVTGYGSTSTAGSNSSLIAGYGSTQTAGFKSILTAGYGSTQTAQERTSLVAGYGSTSTAGYSSSLIAGYGSTQTAGYESTLTAGYGSTQTAQENSSLTTGYGSTSTAGYSSSLIAGYGSTQTAGYESTLTAGYGSTQTAQERSDLVTGYGSTSTAGYASSLIAGYGSTQTAGYESTLTAGYGSTQTAQENSSLTTGYGSTSTAGFASSLISGYGSTQTAGYKSTLTAGYGSTQTAEYGSSLTAGYGSTATAGQDSSLIAGYGSSLTSGIRSFLTAGYGSTLIAGLRSVLIAGYGSSLTSGVRSTLTAGYGSNQIASYGSSLIAGHESIQVAGNKSMLIAGKGSSQTAGFRSTLIAGAGSVQLAGDRSRLIAGADSNQTAGDRSKLLAGNNSYLTAGDRSKLTGGHDCTLMAGDQSRLTAGKNSVLTAGARSKLIGSEGSTLSAGEDSILIFRLWDGKRYRQLVARTGENGVEADIPYYVNEDDDIVDKPDEDDDWIEVK

Assays:
[1] = Ice nucleation kinetics of picoliter-sized drops of D2O and H2O mixtures (droplet technology); type: physicochemical
Description: FIG. 7. Probability distribution of ice nucleation temperature using nanodroplet technology, wherein condition 1 is pure heavy water containing 0.1 g/L SNOMAX, condition 2 is pure water containing 0.1 g/L SNOMAX, condition 3 is pure heavy water, and condition 4 is pure water.
This disclosure has also systematically investigated the ice nucleation kinetics of picoliter-sized drops of heavy water (e.g., D2O or T2O) and light water (H2O) mixtures with freeze-dried P. syringae. […] The disclosure further investigated the effects of commonly used cryoprotectants such as ethylene glycol, propylene glycol and trehalose on the freezing characteristics of D2O and H2O mixtures. […] Furthermore, several cryoprotectants are found to depress the freezing phenomenon. Both the homogeneous and heterogeneous freezing temperatures of these aqueous solutions depend on the water activity and are independent of the nature of solute.
A self-nucleating and preservation formulation comprising heavy water and ice nucleating agents was developed with broad applications in the field of cryopreservation. […]

animals and animal cells = settings: at normal body temperatures; cited from earlier work
[2] = background statement; cited from earlier work

| Molecule | shift of the ice nucleation kinetics profile per 25% (v/v) increase of D2O concentration ([1]; D2O+H2O mixtures containing 1 mg/ml SNOMAX) | median nucleation temperature ([1]; pure D2O, no ice nucleating agent, droplet technology) [°C] | concentration that can be toxic (animals and animal cells) | temperature at which water freezes [2] [°C] |
| --- | --- | --- | --- | --- |
| [2H]O[2H] [D2O] | shifts by about one degree | −32.1 | more than 20% | – |
| B1 | – | – | – | −4 to −2 |
